Reference: patent US11034672B1, “Tyrosine kinase inhibitor compositions, methods of making and methods of use” (Black Diamond Therapeutics, Inc., priority 2018, dated 2021)

Key:
[1] = tested on: HER2 S310F; assay: Tumor pHER2/pERK AlphaLisa in mice bearing HER2 S310F BaF3 tumors (Examples 15-18); format: in vivo; conditions: two day acute oral dosing, 15 mg/kg; at peak plasma levels
Procedure: (§1) Following the second dose, tumors were collected at 2 hours, 5 hours, 12 hours and 24 hours, and analyzed for both pHER2 activity and pERK activity via AlphaLisa. Plasma was also collected at these time points and analayzed for the presence of Compound No. 21 to determine pharmacokinetic profile. The tumor tissue was cut and homogenized using the Precellys Soft Tissue Homogenizing kit (KT03961-1-00.3.2) containing T-PER tissue protein extraction reagent (Thermo Scientific #78510), supplemented with Protease Inhibitor (Sigma P8340), and Phosphatase Inhibitors II and III (Sigma P5726 and P0044). Tissue samples were homogenized in the Precellys machine by spinning two times for one minute each. Sample tubes were centrifuged for 5 min at 15,000 rpm at 4° C. The supernatant was transferred to a fresh microtube and spun again for 5 minutes at 15,000 rpm at 4° C. Supernatant was then transferred to a fresh microtube and placed on ice. The protein concentration of the supernatant was measured using the BCA reagent Kit (Thermo Scientific #23225). Tumor tissue-derived lysates were analyzed for either HER2 activity or EGFR activity by detection of pHER2 (Tyr1221/1222) or pERK (Thr202/Tyr204) phosphosites, respectively, via AlphaLisa. Briefly, tumor Lysates were diluted to 0.5 ug/ul in 1× diluted SureFire Ultra Kit Lysis Buffer (5× supplied stock) supplemented with Protease Inhibitor (Sigma P8340) and Phosphatase Inhibitor II and III (Sigma P5726 and P0044). 10 ul of total tumor lysate was added per well in triplicate to a 384-well Opti-plate (Perkin Elmer #6007290). Activation Buffer was diluted 25-fold in combined Reaction Buffer 1 and Reaction Buffer 2, and acceptor beads were diluted 50-fold in the combined Reaction Buffers. 5 ul/well of the Acceptor bead:Reaction buffer mixture was added to each well.
as §1, with “No. 5” for “No. 21”, “Buffer (X” for “Buffer (5×”
To determine the ability of Compound No. 118 to inhibit tumor growth and induce tumor regression in vivo, a mouse tumor model containing the HER2 S310F mutation was used. Athymic nude mice from Charles River Labs bearing HER2 S310F BaF3 tumors were treated with two day acute oral dosing of Compound No. 118 at 15 mg/kg. […]

[2] = target: T1, HER2 S310F (HER2-S310F) (Homo sapiens, UniProt P04626, S310F); assay: BaF3 panel Cell Titer Glo proliferation, HER2 S310F (Example 3); format: cell-based; conditions: BaF3 transformant, 72 hours, FIG. 21; read-out: IC50, HER2-S10F
T1 construct: expressed in transfected cells; host or cells: BaF3 (murine pro-B)
T1 sequence (P04626 23-1255 S310F): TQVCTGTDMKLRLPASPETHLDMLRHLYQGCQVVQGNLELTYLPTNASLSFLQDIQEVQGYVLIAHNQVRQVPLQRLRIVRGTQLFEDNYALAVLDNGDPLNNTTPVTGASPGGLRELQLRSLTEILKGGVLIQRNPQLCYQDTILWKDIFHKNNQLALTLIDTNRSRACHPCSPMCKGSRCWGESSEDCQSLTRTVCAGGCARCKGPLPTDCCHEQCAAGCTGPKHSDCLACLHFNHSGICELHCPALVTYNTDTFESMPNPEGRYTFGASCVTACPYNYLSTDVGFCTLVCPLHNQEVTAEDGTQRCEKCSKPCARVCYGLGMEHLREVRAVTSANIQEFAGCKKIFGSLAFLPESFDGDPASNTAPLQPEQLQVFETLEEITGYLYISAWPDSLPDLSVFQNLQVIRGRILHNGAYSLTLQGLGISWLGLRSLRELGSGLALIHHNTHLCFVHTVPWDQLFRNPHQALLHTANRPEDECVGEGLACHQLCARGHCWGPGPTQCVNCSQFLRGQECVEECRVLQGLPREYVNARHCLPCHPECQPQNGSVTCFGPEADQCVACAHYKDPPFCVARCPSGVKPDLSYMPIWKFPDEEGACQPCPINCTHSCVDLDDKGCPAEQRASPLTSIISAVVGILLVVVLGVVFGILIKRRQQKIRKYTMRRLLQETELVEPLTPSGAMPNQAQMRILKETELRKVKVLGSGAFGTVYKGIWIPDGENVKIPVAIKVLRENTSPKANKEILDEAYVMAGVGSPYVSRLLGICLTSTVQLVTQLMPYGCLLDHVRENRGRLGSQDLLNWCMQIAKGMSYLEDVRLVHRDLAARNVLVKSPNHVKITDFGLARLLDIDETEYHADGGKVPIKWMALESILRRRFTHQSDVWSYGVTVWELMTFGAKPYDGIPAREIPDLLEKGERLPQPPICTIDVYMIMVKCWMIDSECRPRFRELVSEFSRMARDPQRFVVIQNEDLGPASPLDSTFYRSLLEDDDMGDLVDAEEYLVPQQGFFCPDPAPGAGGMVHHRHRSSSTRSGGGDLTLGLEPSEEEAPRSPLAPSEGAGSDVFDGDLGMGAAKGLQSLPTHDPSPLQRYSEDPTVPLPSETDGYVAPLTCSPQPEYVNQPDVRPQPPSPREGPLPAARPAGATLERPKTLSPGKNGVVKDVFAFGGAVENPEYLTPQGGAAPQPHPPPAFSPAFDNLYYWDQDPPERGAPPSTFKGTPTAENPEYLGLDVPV
Procedure: To determine the ability of Compound No. 6 to target wild type HER2, wild type EGFR, and relevant mutants of each, a panel of BaF3 cell lines and the A431 cell line were dosed and assessed in cell proliferation assays. The BaF3 parental cell line is normally dependent on IL-3 for proliferation, but when transformed with active tyrosine kinase can grow in the absence of IL-3. However, when transformed kinase activity is inhibited by a targeted small molecule the associated proliferation is reduced in proportion to the extent of inhibition. A panel of BaF3 cell lines were generated by transforming the parental BaF3 cell line with wild type HER2 (HER2-WT), HER2 S310F (HER2-S310F), HER2 Exon 20 insertion YVMA (HER2-YVMA), EGFR-Exon 20 insertion ASV (EGFR-ASV), EGFR-Exon 20 insertion SVD (EGFR-SVD), or EGFR-Exon 20 insertion NPH (EGFR-NPH). The A431 […] cell line, which natively expresses WT-EGFR, was used to assess WT-EGFR inhibition. […] Proliferation was assessed using the Cell Titer Glo cell proliferation kit (Promega # G7573). […] Cell Titer Glo was added to plated cells at 15 ul per well, the plate was shaken for 20 minutes at room temperature, and luminescence was measured using Victor X3 Multimode plate reader (Perkin Elmer), Cell Titer Glo readings were taken following 72 hours (T72) after addition of Compound No. 6. […]

Row | SMILES | pERK1/2 (Thr202/Tyr204) in tumors [1] | pHER2 (Tyr1221/1222) in tumors [1] | IC50 [2] [nM]
1 | CC#CC(=O)Nc1cc2c(Nc3ccc(OCc4ccccn4)c(Cl)c3)ncnc2cc1OCCN1CCOCC1 [compound 5] | reduction | reduction | –
2 | C=CC(=O)Nc1cc2c(Nc3cc(Cl)c(OCc4cccc(F)c4)cc3F)ncnc2cc1OCCN1CCOCC1 [compound 6] | – | – | < 100
3 | C=CC(=O)Nc1cc2c(Nc3ccc(OCc4ccccn4)c(Cl)c3)ncnc2cc1OCCCN1CCOCC1 [compound 21] | near complete reduction | near complete reduction | –
